Numbered stars: 1 amine (or outer) side, 2 acyl side, 3 side chain; on linkers, the order of the positions; unused ones are H or OH. Bridge positions count the residues as written; N and C are the ends. Square brackets hold non-standard residues; d marks the D form. Side chains are listed from the residue outwards. Peptide text beside a SMILES is read from it. * marks the point of attachment. C18 diacid = O=C(O)CCCCCCCCCCCCCCCCC(=O)*; γGlu = O=C(O)[C@H](CCC(=O)[*:2])N[*:1]; Aib = CC(C)(N)C(=O)O
How the values were obtained:
[1] = biological target: T1, human amylin receptor (calcitonin receptor co-expressed with receptor activity modifying protein, RAMP3) (hAMYR3) (Homo sapiens, UniProt O60896+P30988); test: cAMP production in 1321N1 cells with stable recombinant expression of human amylin receptor (hAMYR3); format: cell-based; conditions: for Ratio (selectivity hAMYR vs hCTR, ratio of EC50 values at the two receptors): EC50 hCTR / EC50 hAMYR3; for EC50: cAMP, 1321N1 cells, assay buffer with 0.1% BSA, read-out: EC50 (pM) hAMYR3
T1 construct: expressed in transfected cells
T1 sequence (P30988 25-474): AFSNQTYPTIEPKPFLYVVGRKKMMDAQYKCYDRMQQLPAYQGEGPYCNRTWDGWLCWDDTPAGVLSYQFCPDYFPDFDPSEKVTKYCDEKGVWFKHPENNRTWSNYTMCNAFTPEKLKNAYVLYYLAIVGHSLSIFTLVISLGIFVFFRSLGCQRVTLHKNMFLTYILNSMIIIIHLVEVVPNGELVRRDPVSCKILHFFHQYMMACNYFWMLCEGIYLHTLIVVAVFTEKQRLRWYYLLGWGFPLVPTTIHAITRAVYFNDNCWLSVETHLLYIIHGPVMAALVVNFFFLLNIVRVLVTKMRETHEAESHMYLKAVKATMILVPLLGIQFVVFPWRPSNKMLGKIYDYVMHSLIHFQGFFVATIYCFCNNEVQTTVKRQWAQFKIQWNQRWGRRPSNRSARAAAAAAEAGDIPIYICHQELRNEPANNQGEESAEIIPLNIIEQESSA
T1 sequence (O60896 24-148 partner): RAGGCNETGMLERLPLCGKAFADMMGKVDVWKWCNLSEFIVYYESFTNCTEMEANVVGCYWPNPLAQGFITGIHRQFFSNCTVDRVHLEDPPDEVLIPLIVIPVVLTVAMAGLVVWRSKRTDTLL
In short: (§1)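 EC50 values come from 4-parameter logistic fits of HTRF cAMP signal, normalised to maximal calcitonin or amylin effect. Peptides were tested in duplicate for 30 min at RT in IBMX-containing (0.5 mM) BSA/HEPES buffer pH 7.4 on stable 1321N1 (human CTR, AMYR3) or HEK (rat CTR, AMYR3) lines.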

[2] = biological target: T2, human calcitonin receptor (hCTR) (Homo sapiens, UniProt P30988); test: cAMP production in 1321N1 cells with stable recombinant expression of human calcitonin receptor (hCTR); format: cell-based; conditions: cAMP, 1321N1 cells, assay buffer with 0.1% BSA; read-out: EC50 (pM) hCTR
T2 construct: expressed in transfected cells
T2 sequence (P30988 25-474): T1 sequence (P30988 25-474)
In short: as §1

For `CC[C@H](C)[C@H](NC(=O)[C@@H]1CCCN1C(=O)CNC(=O)[C@H](Cc1ccccc1)NC(=O)[C@H](CC(N)=O)NC(=O)C(C)(C)NC(=O)[C@H](CO)NC(=O)[C@H](CO)NC(=O)[C@H](Cc1c[nH]cn1)NC(=O)[C@@H](NC(=O)[C@H](CC(C)C)NC(=O)[C@H](Cc1ccccc1)NC(=O)[C@H](CC(N)=O)NC(=O)[C@H](C)NC(=O)[C@H](CC(C)C)NC(=O)[C@H](CCCNC(=N)N)NC(=O)[C@H](CCC(N)=O)NC(=O)[C@@H](NC(=O)[C@H](C)NC(=O)[C@@H]1CSSC[C@H](NC(=O)[C@H](CCCCN)NC(=O)[C@@H](N)CCCCNC(=O)CC[C@H](NC(=O)CCCCCCCCCCCCCCCCC(=O)O)C(=O)O)C(=O)N[C@@H](CC(N)=O)C(=O)N[C@@H]([C@@H](C)O)C(=O)N[C@@H](C)C(=O)N[C@@H]([C@@H](C)O)C(=O)N1)[C@@H](C)O)C(C)C)C(=O)NC(C)(C)C(=O)N1CCC[C@H]1C(=O)N1CCC[C@H]1C(=O)N[C@H](C(=O)N[C@@H](CC(N)=O)C(=O)N[C@H](C(=O)NCC(=O)N[C@@H](CO)C(=O)N[C@@H](CC(N)=O)C(=O)N[C@H](C(=O)N[C@@H](Cc1ccc(O)cc1)C(N)=O)[C@@H](C)O)C(C)C)[C@@H](C)O` [Peptide 79, K(γE-C18diacid)K[CNTATC]ATQRLANFLVHSS(Aib)NFGPI(Aib)PPTNVGSNTY-amide] (H-K([γGlu-C18 diacid])KCNTATCATQRLANFLVHSS[Aib]NFGPI[Aib]PPTNVGSNTY-NH2; disulfide 3-8), the “Ratio (selectivity hAMYR vs hCTR, ratio of EC50 values at the two receptors)” value [1] was 7, the EC50 [1] was 659 pM and the EC50 [2] was 4800 pM.
With `CC[C@H](C)[C@H](NC(=O)[C@@H]1CCCN1C(=O)CNC(=O)[C@H](Cc1ccccc1)NC(=O)[C@H](CC(N)=O)NC(=O)C(C)(C)NC(=O)[C@H](CO)NC(=O)[C@H](CO)NC(=O)[C@H](Cc1c[nH]cn1)NC(=O)[C@@H](NC(=O)[C@H](CC(C)C)NC(=O)[C@H](Cc1ccccc1)NC(=O)[C@H](CC(N)=O)NC(=O)[C@H](C)NC(=O)[C@H](CC(C)C)NC(=O)[C@H](CCCNC(=N)N)NC(=O)[C@H](CCC(N)=O)NC(=O)[C@@H](NC(=O)[C@H](C)NC(=O)[C@@H]1CSSC[C@H](NC(=O)[C@H](CCCCN)NC(=O)[C@@H](N)CCCCNC(=O)CC[C@H](NC(=O)CCCCCCCCCCCCCCCCC(=O)O)C(=O)O)C(=O)N[C@@H](CC(N)=O)C(=O)N[C@@H]([C@@H](C)O)C(=O)N[C@@H](C)C(=O)N[C@@H]([C@@H](C)O)C(=O)N1)[C@@H](C)O)C(C)C)C(=O)N[C@@H](CC(C)C)C(=O)N1CCC[C@H]1C(=O)N1CCC[C@H]1C(=O)N[C@H](C(=O)N[C@@H](CC(N)=O)C(=O)N[C@H](C(=O)NC(C)(C)C(=O)N[C@@H](CO)C(=O)N[C@@H](CC(N)=O)C(=O)N[C@H](C(=O)N[C@@H](Cc1ccc(O)cc1)C(N)=O)[C@@H](C)O)C(C)C)[C@@H](C)O` [Peptide 81, K(γE-C18diacid)K[CNTATC]ATQRLANFLVHSS(Aib)NFGPILPPTNV(Aib)SNTY-amide] (H-K([γGlu-C18 diacid])KCNTATCATQRLANFLVHSS[Aib]NFGPILPPTNV[Aib]SNTY-NH2; disulfide 3-8; N-terminus assumed) the “Ratio (selectivity hAMYR vs hCTR, ratio of EC50 values at the two receptors)” value [1] was 7, the EC50 [1] was 404 pM and the EC50 [2] was 2760 pM.
With `CC[C@H](C)[C@H](NC(=O)[C@@H]1CCCN1C(=O)CNC(=O)[C@H](Cc1ccccc1)NC(=O)[C@H](CC(N)=O)NC(=O)C(C)(C)NC(=O)[C@H](CO)NC(=O)[C@H](CO)NC(=O)[C@H](Cc1c[nH]cn1)NC(=O)[C@@H](NC(=O)[C@H](CC(C)C)NC(=O)[C@H](Cc1ccccc1)NC(=O)[C@H](CC(N)=O)NC(=O)[C@H](C)NC(=O)[C@H](CC(C)C)NC(=O)[C@H](CCCNC(=N)N)NC(=O)[C@H](CCC(N)=O)NC(=O)[C@@H](NC(=O)[C@H](C)NC(=O)[C@@H]1CSSC[C@H](NC(=O)[C@H](CCCCN)NC(=O)[C@@H](N)CCCCNC(=O)CC[C@H](NC(=O)CCCCCCCCCCCCCCCCC(=O)O)C(=O)O)C(=O)N[C@@H](CC(N)=O)C(=O)N[C@@H]([C@@H](C)O)C(=O)N[C@@H](C)C(=O)N[C@@H]([C@@H](C)O)C(=O)N1)[C@@H](C)O)C(C)C)C(=O)N[C@@H](CC(C)C)C(=O)N1CCC[C@H]1C(=O)N1CCC[C@H]1C(=O)N[C@H](C(=O)N[C@@H](CC(N)=O)C(=O)N[C@H](C(=O)NCC(=O)N[C@@H](CO)C(=O)NC(C)(C)C(=O)N[C@H](C(=O)N[C@@H](Cc1ccc(O)cc1)C(N)=O)[C@@H](C)O)C(C)C)[C@@H](C)O` [Peptide 82, K(γE-C18diacid)K[CNTATC]ATQRLANFLVHSS(Aib)NFGPILPPTNVGS(Aib)TY-amide] (H-K([γGlu-C18 diacid])KCNTATCATQRLANFLVHSS[Aib]NFGPILPPTNVGS[Aib]TY-NH2; disulfide 3-8) the “Ratio (selectivity hAMYR vs hCTR, ratio of EC50 values at the two receptors)” value [1] was 8, the EC50 [1] was 514 pM and the EC50 [2] was 4280 pM.
With `CC[C@H](C)[C@H](NC(=O)[C@@H]1CCCN1C(=O)CNC(=O)[C@H](Cc1ccccc1)NC(=O)[C@H](CC(N)=O)NC(=O)C(C)(C)NC(=O)[C@H](CO)NC(=O)[C@H](CO)NC(=O)[C@H](Cc1c[nH]cn1)NC(=O)[C@@H](NC(=O)[C@H](CC(C)C)NC(=O)[C@H](Cc1ccccc1)NC(=O)[C@H](CC(N)=O)NC(=O)[C@H](C)NC(=O)[C@H](CC(C)C)NC(=O)[C@H](CCCNC(=N)N)NC(=O)[C@H](CCC(N)=O)NC(=O)[C@@H](NC(=O)[C@H](C)NC(=O)[C@@H]1CSSC[C@H](NC(=O)[C@H](CCCCN)NC(=O)[C@@H](N)CCCCNC(=O)CC[C@H](NC(=O)CCCCCCCCCCCCCCCCC(=O)O)C(=O)O)C(=O)N[C@@H](CC(N)=O)C(=O)N[C@@H]([C@@H](C)O)C(=O)N[C@@H](C)C(=O)N[C@@H]([C@@H](C)O)C(=O)N1)[C@@H](C)O)C(C)C)C(=O)N[C@@H](CC(C)C)C(=O)N1CCC[C@H]1C(=O)N1CCC[C@H]1C(=O)N[C@H](C(=O)N[C@@H](CC(N)=O)C(=O)N[C@H](C(=O)NCC(=O)N[C@@H](CO)C(=O)N[C@@H](CC(N)=O)C(=O)NC(C)(C)C(=O)N[C@@H](Cc1ccc(O)cc1)C(N)=O)C(C)C)[C@@H](C)O` [Peptide 83, K(γE-C18diacid)K[CNTATC]ATQRLANFLVHSS(Aib)NFGPILPPTNVGSN(Aib)Y-amide] (H-K([γGlu-C18 diacid])KCNTATCATQRLANFLVHSS[Aib]NFGPILPPTNVGSN[Aib]Y-NH2; disulfide 3-8; N-terminus assumed) the “Ratio (selectivity hAMYR vs hCTR, ratio of EC50 values at the two receptors)” value [1] was 11, the EC50 [1] was 599 pM and the EC50 [2] was 6340 pM.
`CC[C@H](C)[C@H](NC(=O)[C@@H]1CCCN1C(=O)CNC(=O)[C@H](Cc1ccccc1)NC(=O)[C@H](CC(N)=O)NC(=O)C(C)(C)NC(=O)[C@H](CO)NC(=O)[C@H](CO)NC(=O)[C@H](Cc1c[nH]cn1)NC(=O)[C@@H](NC(=O)[C@H](CC(C)C)NC(=O)[C@H](Cc1ccccc1)NC(=O)[C@H](CC(N)=O)NC(=O)[C@H](C)NC(=O)[C@H](CC(C)C)NC(=O)[C@H](CCCNC(=N)N)NC(=O)[C@H](CCC(N)=O)NC(=O)[C@@H](NC(=O)[C@H](C)NC(=O)[C@@H]1CSSC[C@H](NC(=O)[C@H](CCCCN)NC(=O)[C@@H](N)CCCCNC(=O)CC[C@H](NC(=O)CCCCCCCCCCCCCCCCC(=O)O)C(=O)O)C(=O)N[C@@H](CC(N)=O)C(=O)N[C@@H]([C@@H](C)O)C(=O)N[C@@H](C)C(=O)N[C@@H]([C@@H](C)O)C(=O)N1)[C@@H](C)O)C(C)C)C(=O)N[C@@H](CC(C)C)C(=O)N1CCC[C@H]1C(=O)N1CCC[C@H]1C(=O)N[C@H](C(=O)N[C@@H](CC(N)=O)C(=O)N[C@H](C(=O)NCC(=O)NC(C)(C)C(=O)N[C@@H](CC(N)=O)C(=O)N[C@H](C(=O)N[C@@H](Cc1ccc(O)cc1)C(N)=O)[C@@H](C)O)C(C)C)[C@@H](C)O` [Peptide 84, K(γE-C18diacid)K[CNTATC]ATQRLANFLVHSS(Aib)NFGPILPPTNVG(Aib)NTY-amide] (H-K([γGlu-C18 diacid])KCNTATCATQRLANFLVHSS[Aib]NFGPILPPTNVG[Aib]NTY-NH2; disulfide 3-8; N-terminus assumed) was tested, and the “Ratio (selectivity hAMYR vs hCTR, ratio of EC50 values at the two receptors)” value [1] was 3, the EC50 [1] was 118 pM and the EC50 [2] was 401 pM.

Reference: US20240067693A1, “POLYPEPTIDES AND USES THEREOF” (MEDIMMUNE LIMITED, priority 2020, published 2024)
